According to patent US12448358B2, “Inhibitors of protein arginine deiminase 1 and methods of preparation and use thereof” (University of Massachusetts, priority 2019, dated 2025):

Key:
HEK293TPAD1 cells = experiment: Cytotoxicity studies (XTT) in HEK293TPAD1 cells; assay type: cell-based, human; conditions: cytotoxicity EC50 (XTT, 24 h) over EC50 for histone H3 citrullination
Description: Cytotoxicity Studies. HEK293TPAD1 cells were seeded (2×10^4 cells/well) on 96-well plate and were allowed to grow in DMEM (supplemented with 10% heat-inactivated fetal bovine serum, 100 units/mL penicillin, 100 μg/mL streptomycin and 0.15 mg/mL hygromycin B) for 24 h. Cells were then treated with DMSO or various concentrations of inhibitor at 37° C. for 24 h. Activated XTT reagent (ATCC) was added to each well and cells were further incubated at 37° C. for 5 h. Cell viability was measured by recording the absorbance at 475 nm and 660 nm. Equation 3, Y=Bottom+(Top−Bottom)/[1+10^((logEC50-X)*Hillslope)] (3), was used to fit an eight-point dose-response curve to determine the EC50 values for inhibition of cell-proliferation using GraphPad Prism 7.03. Top and Bottom are plateaus of the dose-response curve, X is the log of inhibitor-concentration, Hillslope is the slope factor or Hill slope. All the experiments were performed at least in triplicate.

pronuclear mouse zygotes = experiment: Early embryo development of pronuclear mouse zygotes; assay type: cell-based; conditions: 100 μM inhibitor, 100 h of culture, 87% of control zygotes reached blastocyst stage
Description: (§1) In Vitro Fertilization. Female ICR mice (4-6 weeks) were injected intraperitoneally with 10 international units (IU) of pregnant mare serum gonadotropin (PMSG) and after 46 h, 10 IU of human chorionicgonadotropin (hCG). After 16 h, cumulus masses were released from oviducts into HEPES-buffered HTF culture medium (HTF) (InVitro Care, Frederick, MD). Cauda epididymal mouse spermatozoa were released and placed in drops of HTF culture medium (InVitro Care). Then the sperm suspensions were added to the cumulus mass drops with a final concentration of approximately 1-3×10^5/mL. Zygotes were collected and transferred to KSOM medium containing 100 μM PAD1 inhibitor or equal volume of DMSO as a control. Then 4-cell and blastocyst stage embryos were collected after 48 and 100 h of culture, respectively.

PAD1 = biological target: T1, PAD1 (Mus musculus, UniProt Q9Z185); experiment: Histone H3 citrullination in mouse embryos (immunofluorescence, confocal microscopy); assay type: cell-based; conditions: mouse embryos at the 4-cell stage, 100 μM inhibitor
T1 construct: endogenously expressed cellular PAD1 in mouse zygotes; endogenous in cells; host or cells: ICR mouse zygotes / 4-cell embryos from in vitro fertilization
T1 sequence (Q9Z185 1-662): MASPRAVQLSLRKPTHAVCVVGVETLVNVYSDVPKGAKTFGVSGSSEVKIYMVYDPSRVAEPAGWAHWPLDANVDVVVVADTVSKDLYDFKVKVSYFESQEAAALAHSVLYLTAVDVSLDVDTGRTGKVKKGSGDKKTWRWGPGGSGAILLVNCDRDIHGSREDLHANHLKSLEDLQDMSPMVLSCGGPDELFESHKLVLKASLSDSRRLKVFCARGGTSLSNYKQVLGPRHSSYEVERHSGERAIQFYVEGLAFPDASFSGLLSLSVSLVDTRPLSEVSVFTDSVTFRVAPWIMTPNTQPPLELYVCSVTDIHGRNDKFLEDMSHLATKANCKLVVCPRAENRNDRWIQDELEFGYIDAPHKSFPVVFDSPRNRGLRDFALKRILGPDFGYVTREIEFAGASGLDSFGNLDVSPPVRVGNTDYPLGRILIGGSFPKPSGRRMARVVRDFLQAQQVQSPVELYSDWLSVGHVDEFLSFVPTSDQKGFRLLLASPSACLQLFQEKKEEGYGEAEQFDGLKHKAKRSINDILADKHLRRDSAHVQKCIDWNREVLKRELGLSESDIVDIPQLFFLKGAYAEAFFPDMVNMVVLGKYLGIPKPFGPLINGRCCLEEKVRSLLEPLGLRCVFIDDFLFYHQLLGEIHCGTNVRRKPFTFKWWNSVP
Description: as §1
Immunofluorescent and Confocal Microscopy. Embryos were fixed in 4% paraformaldehyde in PBS (pH 7.4) for 30 min and then permeabilized in 0.5% Triton X-100 for 30 min at room temperature. After blocking in 1% BSA/PBS at room temperature for 1 h, samples were incubated with anti-H3Cit2/8/17 antibody (Catalogue no. ab77164, Abcam) (1:100) at 4° C. for 12 h. After five washes, samples were incubated with FITC-conjugated secondary antibody for 1 h at room temperature. Nuclei were counterstained with DAPI for 5 min. […]

SMILES | Efficacy Index (the ratio of cytotoxicity to EC50) (HEK293TPAD1 cells) | Effect on early embryo development (pronuclear mouse zygotes) | Inhibition of histone H3 citrullination in embryos (PAD1)
N=C(CF)NCCC[C@H](NC(=O)c1cc(I)cc(I)c1O)c1nc2ccccc2[nH]1 [Compound 1] | 17 | dramatic arrest of embryo development at the morula stage | dramatically inhibit histone H3 citrullination
N=C(CF)NCCC[C@H](NC(=O)c1cc(I)c(F)c(I)c1O)c1nc2ccccc2[nH]1 [Compound 19] | 10 | dramatic arrest of embryo development at the morula stage | dramatically inhibit histone H3 citrullination
